Consider one compound from patent publication US9593305B2, “Differentiation of pluripotent stem cells” (Janssen Biotech, Inc., priority 2008, dated 2017).

For test [1], the system named is H1 human embryonic stem cells. Put plainly: Screen of CDK, GSK3 and TRK inhibitors with or without GDF-8, SOX17 and cell number (Example 20, Table 17). As to conditions: Plate 1; for Cell Number, % of positive control / Sox17 Expression, % of positive control: positive control = Activin A/Wnt3a. The test is classed as cell-based. As to the method: Briefly, clusters of H1 human embryonic stem cells were grown on reduced growth factor Matrigel™ (Invitrogen; Cat #356231) coated tissue culture plastic. Cells were passaged using collagenase (Invitrogen; Cat #17104-019) treatment and gentle scraping, washed to remove residual enzyme, and plated with even dispersal at a ratio of 1:1 (surface area) on reduced growth factor […]™ (BD Biosciences; Cat #356231)-coated 96-well black plates (Packard ViewPlates; PerkinElmer; Cat #6005182) using volumes of 100 μl/well. Cells were allowed to attach and then recover log phase growth over a 1 to 3 day time period, feeding daily with MEF conditioned medium supplemented with 8 ng/ml bFGF (R&D Systems; Cat #233-FB). Plates were maintained at 37° C., 5% CO2 in a humidified box throughout the duration of assay.
Screening was conducted using the compounds described in Table 16. […] Compounds were made available as 5 mM stocks in 96-well plate format, solubilized in 100% DMSO (Sigma; Cat #D2650) and stored at −80° C. The library compounds were further diluted to an intermediate concentration of 0.2 mM in 50 mM HEPES (Invitrogen; Cat #15630-080), 20% DMSO and stored at 4° C. Test conditions were performed in triplicate, feeding on alternating days over a four-day assay period. Assay was initiated by aspirating culture medium from each well followed by three washes in PBS (Invitrogen; Cat #14190) to remove residual growth factors. On the first day of assay, test volumes of 200 μl per well were added to each well using DMEM:F12 base medium (Invitrogen; Cat #11330-032) supplemented with 0.5% FCS (HyClone; Cat #SH30070.03) and 100 ng/ml GDF-8 (R&D Systems, Cat #788-G8) plus 2.5 μM compound. A parallel set of test samples were treated in an identical manner but omitting GDF-8 from the medium. On the third day of assay, test volumes of 100 μper well were added to each well using DMEM:F12 base medium supplemented with 2% FCS plus 100 ng/ml GDF-8 (R&D Systems, Cat #788-G8). […] Positive control samples contained the same base medium supplemented with FCS and 100 ng/ml recombinant human activin A (PeproTech; Cat #120-14) throughout the four day assay along with Wnt3a (20 ng/ml) addition on days 1 and 2. Negative control samples contained DMEM:F12 base medium supplemented with FCS.
At the conclusion of four-days of culture, assay plates were washed twice with PBS (Invitrogen; Cat #14190), fixed with 4% paraformaldehyde (Alexis Biochemical; Cat #ALX-350-011) at room temperature for 20 minutes, then washed three times with PBS and permeabilized with 0.5% Triton X-100 (Sigma; Cat #T8760-2) for 20 minutes at room temperature. Cells were washed again three times with PBS and blocked with 4% chicken serum (Invitrogen; Cat #16110082) in PBS for 30 minutes at room temperature. Primary antibody (goat anti-human SOX17; R&D Systems; Cat #AF1924) was diluted 1:100 in 4% chicken serum and added to each well for one hour at room temperature. Alexa Fluor 488 conjugated secondary antibody (chicken anti-goat IgG; Molecular Probes; Cat #AZ1467) was diluted 1:200 in PBS and added to each sample well after washing three times with PBS. To counterstain nuclei, 4 μg/ml Hoechst 33342 (Invitrogen; Cat #H3570) was added for ten minutes at room temperature. Plates were washed once with PBS and left in 100 μl/well PBS for imaging.
Imaging was performed using an IN Cell Analyzer 1000 (GE Healthcare) utilizing the 51008bs dichroic for cells stained with Hoechst 33342 and Alexa Fluor 488. Exposure times were optimized from positive control wells and from untreated negative control wells stained with secondary antibody alone. Images from 15 fields per well were acquired to compensate for any cell loss during the bioassay and subsequent staining procedures. Measurements for total cell number and total SOX17 intensity were obtained from each well using IN Cell Developer Toolbox 1.7 (GE Healthcare) software. […]

In test [2] the test system is CDK, GSK3, and/or TRK signaling pathways. Put plainly: Primary selectivity of the proprietary small molecules (Table 16). As to conditions: as listed in Table 17. On the procedure: A subset of 14 proprietary small molecules, known to have specificity for the CDK, GSK3, and/or TRK signaling pathways were evaluated for their potential to differentiate human embryonic stem cells to cells expressing markers characteristic of the definitive endoderm lineage.

The mark [3] stands for this setting: compound in combination with GDF8.

As to `CN(C)CCNC(=O)c1ccc(-c2cnc3ccc(NCc4cccc(Cl)c4)nn23)cc1` [Compound 57, 4-(6-{[(3-Chlorophenyl)methyl]amino}imidazo[1,2-b]pyridazin-3-yl)-N-[2-(dimethylamino)ethyl]benzamide], in test [1] (compound alone, No GDF8), the “Cell Number, Average Total Cell Number” value stood at 1222; the “Sox17 Expression, Average Total Intensity” value is −7.1E+05; the “Cell Number, % of positive control” value is reported as 8.4 % of positive control; the “Sox17 Expression, % of positive control” value is on record as −0.3 % of positive control. In test [1] (setting [3]), the “Cell Number, Average Total Cell Number” value is listed as 2110; the “Sox17 Expression, Average Total Intensity” value was found to be 1.1E+07; the “Cell Number, % of positive control” value is given as 14.6 % of positive control; the “Sox17 Expression, % of positive control” value is 4.8 % of positive control. Moreover, the “Compound Selectivity” value in test [2] is reported as “Selective for Trk”.
